# Data published in publication PMC8119899, “A Single Mutation in the Outer Lipid-Facing Helix of a Pentameric Ligand-Gated Ion Channel Affects Channel Function Through a Radially-Propagating Mechanism” (Frontiers in Molecular Biosciences, 2021).
# Changes are numbered by the printed parent chain.
# How the values were obtained:
# WT 5-HT3A receptor = molecular target: T1, WT 5-HT3A receptor (Mus musculus, UniProt P23979); assay: [3H]GR65630 saturation binding, WT receptor, HEK293 cell membranes; conditions: mean and SEM, n ≥ 3
# T1 construct: expressed in transfected cells; host or cells: HEK293
# T1 sequence (P23979 24-483 isoform P23979-2 limits assumed): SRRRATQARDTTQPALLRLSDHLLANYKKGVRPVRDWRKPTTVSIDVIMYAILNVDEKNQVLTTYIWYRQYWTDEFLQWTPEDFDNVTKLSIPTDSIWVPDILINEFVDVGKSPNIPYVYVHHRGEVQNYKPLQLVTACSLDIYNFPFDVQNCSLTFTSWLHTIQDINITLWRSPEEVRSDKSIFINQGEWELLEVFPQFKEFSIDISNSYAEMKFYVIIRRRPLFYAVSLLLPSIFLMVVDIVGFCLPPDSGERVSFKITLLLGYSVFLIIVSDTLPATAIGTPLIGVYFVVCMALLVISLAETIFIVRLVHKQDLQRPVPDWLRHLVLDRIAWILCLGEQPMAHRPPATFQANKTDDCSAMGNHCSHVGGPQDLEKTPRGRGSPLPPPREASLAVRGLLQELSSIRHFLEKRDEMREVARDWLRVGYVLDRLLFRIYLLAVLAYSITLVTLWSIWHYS
# Method: (§1) The mouse 5-HT3A cDNA (Q6J1J7) in pcDNA3.1 (for HEK cell transfection) or pGEMHE (for RNA production) was modified by QuikChange site-directed mutagenesis (Agilent Technologies) to create point mutants (verified by sequencing).
# (§2) Human embryonic kidney (HEK) 293 cells were maintained at 37 °C at 5% CO2 in a humidified atmosphere, in Dulbecco's Modified Eagle's Medium/Nutrient Mix F12 (1:1) (Invitrogen, Paisley, UK) with GlutaMAX^TM and 10% fetal bovine serum (GE Healthcare) (DMEM/FBS) and passaged when confluent. Five micrograms of WT or mutant 5-HT3A DNA and 30 μl polyethyleneamine (Polysciences) incubated for 10 min in 1 mL DMEM was added to 60% confluent HEK293 cells for transfection, and cells grown for 2 days before assays.
# (§3) This was performed as previously described. Lummis and Thompson ([2013]) Briefly receptors in crude HEK293 cell membranes were labeled with the 5-HT3R antagonist [^3H]GR65630 by incubation in 0.5 mL 10 mM HEPES buffer pH 7.5 for 1 h on ice, using 1 μM quipazine to determine non-specific binding. Data were analyzed in GraphPad Prism by iterative curve fitting.
# 5-HT3A receptor K255L = molecular target: T2, 5-HT3A receptor K255L (Mus musculus, UniProt P23979, K282L); assay: [3H]GR65630 saturation binding, K255L receptor, HEK293 cell membranes; conditions: mean and SEM, n ≥ 3
# T2 construct: expressed in transfected cells
# T2 sequence (P23979 24-489 K282L): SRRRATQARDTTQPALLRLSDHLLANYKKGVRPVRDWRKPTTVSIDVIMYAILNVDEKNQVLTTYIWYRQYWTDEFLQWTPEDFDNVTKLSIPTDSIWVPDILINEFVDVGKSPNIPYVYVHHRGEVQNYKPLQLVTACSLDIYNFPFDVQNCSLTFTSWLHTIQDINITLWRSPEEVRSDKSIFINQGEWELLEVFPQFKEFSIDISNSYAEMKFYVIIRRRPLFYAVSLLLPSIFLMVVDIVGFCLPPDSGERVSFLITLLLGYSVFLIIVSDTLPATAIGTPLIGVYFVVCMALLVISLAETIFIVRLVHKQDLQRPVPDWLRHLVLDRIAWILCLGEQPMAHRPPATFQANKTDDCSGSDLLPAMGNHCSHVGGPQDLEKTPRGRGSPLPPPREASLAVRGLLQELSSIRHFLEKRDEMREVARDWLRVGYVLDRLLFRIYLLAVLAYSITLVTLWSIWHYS
# Method: as §1, §2, §3
# 5-HT3A receptor C290A = molecular target: T3, 5-HT3A receptor C290A (Mus musculus, UniProt P23979, C317A); assay: [3H]GR65630 saturation binding, C290A receptor, HEK293 cell membranes; set-up: expressed in transfected cells; host or cells: HEK293; conditions: mean and SEM, n ≥ 3
# T3 sequence (P23979 24-489 C317A): T2 sequence (P23979 24-489 K282L) with L259K, C294A
# Method: as §1, §2, §3
# 5-HT3A receptor Y441A = molecular target: T4, 5-HT3A receptor Y441A (Mus musculus, UniProt P23979, Y468A); set-up: expressed in transfected cells; method as in Mesoy et al., [2019]; conditions: HEK293 cells, ref Mesoy et al., [2019]; cited from earlier work
# T4 sequence (P23979 24-489 Y468A): T2 sequence (P23979 24-489 K282L) with L259K, Y445A
# 5-HT3A receptor M235A = molecular target: T5, 5-HT3A receptor M235A (Mus musculus, UniProt P23979, M262A); assay: [3H]GR65630 saturation binding, M235A receptor, HEK293 cell membranes; conditions: mean and SEM, n ≥ 3
# T5 construct: expressed in transfected cells; host or cells: HEK293
# T5 sequence (P23979 24-489 M262A): T2 sequence (P23979 24-489 K282L) with M239A, L259K
# Method: as §1, §2, §3
# 5-HT3A receptor D238A = molecular target: T6, 5-HT3A receptor D238A (Mus musculus, UniProt P23979, D265A); assay: [3H]GR65630 saturation binding, D238A receptor, HEK293 cell membranes; set-up: expressed in transfected cells; host or cells: HEK293; conditions: mean and SEM, n ≥ 3
# T6 sequence (P23979 24-489 D265A): T2 sequence (P23979 24-489 K282L) with D242A, L259K
# Method: as §1, §2, §3
smiles,measurement,setting,value
Cc1[nH]cnc1CCC(=O)c1cn(C)c2ccccc12 [[^3H]GR65630],Bmax,WT 5-HT3A receptor,1.2 ± 0.8 pmol/mg protein
same,Kd,WT 5-HT3A receptor,0.18 ± 0.03 nM
same,Bmax,5-HT3A receptor K255L,0.4 ± 0.2 pmol/mg protein
same,Kd,5-HT3A receptor K255L,0.17 ± 0.02 nM
same,Bmax,5-HT3A receptor C290A,3.8 ± 0.3 pmol/mg protein
same,Kd,5-HT3A receptor C290A,0.85 ± 0.1 nM
same,level of [3H]GR65630 binding sites,5-HT3A receptor Y441A,high levels
same,Bmax,5-HT3A receptor M235A,2.4 ± 0.4 pmol/mg protein
same,Kd,5-HT3A receptor M235A,0.7 ± 0.09 nM
same,Bmax,5-HT3A receptor D238A,1.8 ± 0.4 pmol/mg protein
same,Kd,5-HT3A receptor D238A,0.5 ± 0.07 nM
